# Experimental data as given in patent US7833513B2, “Treatment of Alzheimer's Disease” (Rhode Island Hospital, priority 2004, dated 2010).
# Key:
# [1] = tested on: cerebral cortex and hippocampus glucose and glycogen metabolism; details: adult rats, intracerebroventricular injection; cited from earlier work
# [2] = tested on: brain immunoreactivity (p53, GFAP, phospho-tau, ubiquitin, Aβ, ChAT, AChE); assay: ic-STZ model: immunohistochemical staining of brain; type: in vivo, Long Evans rat
# Text: Paraffin-embedded histological sections of pancreas (5 μm thick) and brain (8 μm thick) were stained with hematoxylin and eosin (H&E) and examined for histopathological lesions, i.e., inflammation, necrosis, and islet cell degeneration. […] Paraffin sections of brain were immunostained with monoclonal or polyclonal antibodies to phospho-tau, Aβ, p53, ubiquitin, glial fibrillary acidic protein (GFAP), choline acetyltransferase (ChAT), and acetylcholinesterase (AChE) to characterize the nature of ic-STZ-induced AD-type neurodegeneration. As negative controls for the immunostaining reactions, either the primary antibody was omitted or non-relevant monoclonal antibody to Hepatitis B virus was used in place of the relevant antibody.
# (§1) Prior to immunostaining, the deparaffinized, re-hydrated tissue sections were sequentially treated with 0.1 mg/ml saponin in phosphate buffered saline (10 mM sodium phosphate, 0.9% NaCl, pH 7.4; PBS), for 20 minutes at room temperature. Endogenous peroxidase activity was quenched by treating the tissue sections with 3% hydrogen peroxide in methanol for 10 minutes, and non-specific binding sites were blocked by a 30-minute incubation in SuperBlock-TBS (Pierce Chemical Co., Rockford, Ill.) at room temperature. After overnight incubation at 4° C. with antibodies diluted to 0.1-1 μg/ml (according to the manufacturer's recommendations), immunoreactivity was detected using rat tissue-pre-adsorbed biotinylated secondary antibodies, avidin biotin horseradish peroxidase complex (ABC) reagents, and diaminobenzidine as the chromogen (Vector Laboratories, Burlingame, Calif.). de la Monte et al., Lab. Invest. 80:1323 (2000). The sections were counterstained with hematoxylin and preserved with mounting medium and coverglass. All sections were examined under code.
# [3] = tested on: insulin receptor; type: in vivo, Long Evans rat; details: temporal lobe membrane extracts
# Protocol: (§2) Membrane proteins were extracted from fresh frozen temporal lobe tissue (˜100 mg) by Polytron (Glen Mils Inc., Clifton, N.J.) homogenization in 5 volumes of NP-40 lysis buffer (50 mM Tris-HCl, pH 7.5, 150 mM NaCl, 1 mM EDTA, 2 mM EGTA, 1% NP-40) containing protease (1 mM PMSF, 0.1 mM TPCK, 1 μg/ml aprotinin, 1 μg/ml pepstatin A, 0.5 μg/ml leupeptin, 1 mM NaF, 1 mM Na4P2O7) and phosphatase (2 mM Na3VO4) inhibitors. The supernatant fractions obtained after centrifuging the samples at 10,000×g for 15 minutes at 4° C. were used in the binding assays. […] Protein concentrations were measured with the bicinchoninic acid (BCA) assay (Pierce, Rockford, Ill.).
# (§3) Competitive equilibrium binding assays were used to assess growth factor binding in relation to ic-STZ-treatment. […]
# (§4) All reactions were performed in 1.5 ml Eppendorff tubes, and the incubations were performed at 4° C. for 16 hours with gentle platform agitation. […] Each sample was counted for 1 minute in an LKB CompuGamma CS Gamma counter. Specific binding was calculated by subtracting fmols of non-specific binding, i.e. amount bound in the presence of excess cold ligand, from total fmols bound (absence of unlabeled competitive ligand). The binding assay results were analyzed using the GraphPad Prism 4 software (GraphPad Software, Inc., San Diego, Calif.).
# [4] = tested on: IGF-I receptor; type: in vivo, Long Evans rat; details: temporal lobe membrane extracts
# Protocol: as §2, §3, §4
# [5] = ic-STZ rat pup model: blood glucose, body and brain weight, pancreas and brain histopathology; type: in vivo, Long Evans rat
# Protocol: Control rats were identically injected with sterile saline. […] Andican et al., Clin. Exp. Pharmacol. Physiol. 32:663 (2005); Saad et al., Arch. Toxicol. (2005); Srinivasan et al., Pharmacol. Res. 52:313 (2005); Karabatas et al., Pancreas 30:318 (2005); Mabley et al., Pancreas 28:E39 (2004). […] The injections were completed within 3 minutes and the needle was withdrawn slowly from the brain.
# At the termination point of the experiment, the rats were weighed and then sacrificed by isofluorane inhalation. Blood was obtained by cardiac puncture to measure glucose concentration using the OneTouch Ultra Blood Glucose Meter (Lifescan, Inc). The pancreases were harvested and immersion fixed in Histofix (Amresco Corp, Solon, Ohio) for paraffin embedding. Fresh brains were weighed and then cut in the coronal plane to obtain a ˜3 mm thick slice that flanked the infundibulum. The 3-mm brain slice was snap frozen between two slabs of dry ice, and stored at −80° C. for later RNA and protein extractions. The residual tissue was immersion fixed (Histofix) and embedded in paraffin for histopathological study and immunohistochemical staining. In approximately 20% of the cases, the brains were weighed, immersion fixed whole, and then sectioned in the coronal plane along standardized landmarks for paraffin embedding and histopathological sectioning.
# Paraffin-embedded histological sections of pancreas (5 μm thick) and brain (8 μm thick) were stained with hematoxylin and eosin (H&E) and examined for histopathological lesions, i.e., inflammation, necrosis, and islet cell degeneration. […] As negative controls for the immunostaining reactions, either the primary antibody was omitted or non-relevant monoclonal antibody to Hepatitis B virus was used in place of the relevant antibody.
# as §1, with “Endogenous peroxidase activity was quenched by treating the tissue sections with 3% hydrogen peroxide in methanol for 10 minutes, and non-specific binding sites were blocked by a 30-minute incubation in SuperBlock-TBS (Pierce Chemical Co., Rockford, Ill.) at room temperature.” left out
# [6] = temporal cortex, hippocampus, hypothalamus/thalamus, cerebellar cortex
smiles,measurement,setting,value
CN(N=O)C(=O)NC1C(O)OC(CO)C(O)C1O (centres unmarked) [STZ],chronic reduction in glucose and glycogen metabolism,[1],10-30%
same,p53 immunoreactivity in brain,[2]; 14- and 21-day post-treatment,only slightly increased relative to control
same,p53 immunoreactivity in brain,[2]; Day 7 post-treatment,prominently increased
same,Aβ immunoreactivity,"[2]; neurons, vessels, plaque-like deposits",increased
same,AChE immunoreactivity,"[2]; rat, in vivo",increased
same,ChAT immunoreactivity,"[2]; rat, in vivo",decreased
same,GFAP immunoreactivity,"[2]; rat, in vivo",globally increased
same,phospho-tau immunoreactivity,[2]; [6],increased
same,ubiquitin immunoreactivity,[2]; [6],increased
same,reduction of mean equilibrium binding to the insulin receptor vs control,[3],approximately 85%
same,IGF-I binding vs control,[4],"increased, although the difference was not statistically significant"
same,hemorrhage in brain,[5]; 40 mg/kg ic-STZ,multiple small foci of acute subarachnoid hemorrhage
same,insulin immunoreactivity in pancreatic islets,[5]; 40 mg/kg ic-STZ,prominent insulin immunoreactivity in all pancreatic islets
same,pancreas histopathology,[5]; 40 mg/kg ic-STZ,"no evidence of inflammation, necrosis, or islet cell degeneration"
same,size of cerebral and cerebellar hemispheres,[5]; 40 mg/kg ic-STZ,conspicuously reduced in size
same,mean blood glucose level vs control,"[5]; 40 mg/kg ic-STZ, day 14",significantly lower than control
same,mean body weight vs control,"[5]; 40 mg/kg ic-STZ, day 14",significantly reduced
same,mean brain weight vs control,"[5]; 40 mg/kg ic-STZ, day 14",significantly reduced relative to control
same,random blood glucose concentration (none of the rats above),"[5]; 40 mg/kg ic-STZ, day 14",≤ 180 mg/dL
same,survival of the injections,"[5]; 3-day-old pups, bilateral ic injection",All animals survived
